Among the data in ChEMBL document CHEMBL4418285, “1-cyano-pyrrolidine compounds as usp30 inhibitors” (2018) are IC50 values, retold here.

Experiment [1] concerns the target T1, Ubiquitin carboxyl-terminal hydrolase 30 (Homo sapiens, UniProt Q70CQ3).
T1 sequence (Q70CQ3 whole entry): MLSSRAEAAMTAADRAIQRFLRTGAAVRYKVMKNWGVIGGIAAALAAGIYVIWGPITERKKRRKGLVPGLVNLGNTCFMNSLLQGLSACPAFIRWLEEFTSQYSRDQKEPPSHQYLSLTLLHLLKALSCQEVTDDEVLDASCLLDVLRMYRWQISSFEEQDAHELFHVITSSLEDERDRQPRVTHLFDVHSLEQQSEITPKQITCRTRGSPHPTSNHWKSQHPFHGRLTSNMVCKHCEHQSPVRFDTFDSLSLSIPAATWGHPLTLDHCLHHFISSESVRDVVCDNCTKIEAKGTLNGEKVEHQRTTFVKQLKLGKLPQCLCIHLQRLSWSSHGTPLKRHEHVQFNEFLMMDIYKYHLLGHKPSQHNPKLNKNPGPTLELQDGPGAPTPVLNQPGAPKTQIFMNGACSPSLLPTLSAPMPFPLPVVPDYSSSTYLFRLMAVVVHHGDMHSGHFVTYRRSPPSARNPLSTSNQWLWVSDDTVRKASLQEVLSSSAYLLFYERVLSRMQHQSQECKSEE
As to the kind of experiment: Inhibition of untagged human USP30 catalytic domain (57 to 517 residues) expressed in Escherichia coli using TAMRA labeled ubiquitin peptide as substrate preincubated for 30 min followed by substrate addition and measured after 2 hrs by fluorescence polarization assay. Background: Fluorescence polarisation rises when a labelled molecule tumbles more slowly, as on binding a larger partner.

In experiment [2] the target is T1, Ubiquitin carboxyl-terminal hydrolase 30. Briefly: Inhibition of human USP30 catalytic domain (57 to 517 residues) using ubiquitin-rhodamine 110 as substrate preincubated for 30 min followed by substrate addition and measured after 2 hrs by fluorescence intensity kinetic assay.

Structures are written as SMILES.

In the case of `N#Cc1ccc(NC(=O)N2CC[C@@H]3CN(C#N)C[C@@H]32)c(F)c1`, in experiment [1], the IC50 was 100 to 1000 nM.

Compound `N#CN1C[C@H]2CCN(C(=O)N3CCc4ccccc43)[C@H]2C1` showed a half-inhibitory concentration (IC50) in experiment [2] of 1000 to 10000 nM.

As to `COc1cc(-c2cc(C(=O)N(C)[C@@H]3CCN(C#N)C3)on2)ccn1`, the IC50 in experiment [2] was 100 to 1000 nM.

For `N#CN1C[C@H]2CCN(C(=O)Nc3cc(Cl)ccc3F)[C@H]2C1`, the IC50 in experiment [1] was in the range of 100 to 1000 nM.

`N#CN1CC[C@@H](NC(=O)c2ccc(N3CCOCC3)cc2)C1`: the IC50 in experiment [2] lay in the range of 100 to 1000 nM.

Usually IC50 stands for the midpoint of a concentration-inhibition curve. Higher therefore signals weaker potency in that assay.
